Test [1] has as its system human platelets (platelet rich plasma), ADP-induced aggregation. Briefly: Human platelet aggregation inhibitory activity measurement test (ADP-induced, PRP). It counts as cell-based. As to conditions: compound 10 μM (final concentration); ADP-induced aggregation of human PRP; area under the platelet aggregation curve. The procedure:
Test Method (1) Human Platelet Aggregation Inhibitory Activity Measurement Test
Using a syringe in which 1/10 vol of a 3.8% sodium citrate solution is contained, blood was collected from a healthy volunteer (adult). The blood was subjected to a centrifugation at 160×g for 10 minutes and a supernatant platelet rich plasma (PRP) was separated. The remaining blood of which the PRP has been collected was subjected to a centrifugation at 1,800×g for 10 minutes and a platelet poor plasma (PPP) was separated. The number of the platelets in the PRP was measured using an automatic blood cell counter (MEK-6258, Nihon Kohden Corporation). After that, the PPP was added to the PRP to adjust the number of the platelets to 3×10^8 /ml, thereby using the platelets for the following tests. As an ADP, which is a platelet aggregating agent, a product manufactured by MC Medical Inc. was used. The platelet aggregation was measured using a platelet aggregometer (MCM Hematracer 212; MC medical Inc.). That is, 80 μl of the PRP having the number of the platelets of 3×10^8 /ml and 10 μl of a test compound solution or solvent (10% DMSO or 10% DMSO-9% hydroxypropyl-β-cyclodextrin-4.5% d-mannitol) were incubated at 37° C. for 1 minute and then 10 μl of ADP (50 μM) was added to the mixture to cause platelet aggregation, thereby recording a variation in transmitted light for 5 minutes. An inhibition rate was calculated using an area under the platelet aggregation curve as an index. In addition, Ex represents a number of the compounds of Examples.

The next test concerns the target T1, Human P2Y12 (Homo sapiens, UniProt Q9H244).
T1 construct: expressed in transfected cells
Briefly: Substitution test for the binding between human P2Y12 and 2-methylthio-ADP (2-MeS-ADP). As to conditions: compound 30 nM (final concentration); [33P]-2-MeS-ADP binding to P2Y12 protein-expressing C6-15 cell membrane fraction. As to the method:
Test Method (2) Substitution Test for the binding between Human P2Y12 and 2-methylthio-ADP(2-MeS-ADP)
In a 10 cm petri dish, C6-15 cells were spread to be 1×10^6 of cells by using a DMEM culture medium and cultured for 1 day. After that, genes of plasmids such as 8 μg of pEF-BOS-dhfr-human P2Y12 and 0.8 μg of pEF-BOS-neo (Nucleic Acid Res., 18, 5322, 1990) were introduced to the cells using a transfection reagent (LipofectAMINE 2000; manufactured by GIBCO BRL Inc.).
After 24 hours since the above-mentioned gene introduction operation had been completed, the cells to which the genes were introduced were recovered and suspended in a DMEM culture medium containing 0.6 mg/ml of G418 (manufactured by GIBCO BRL Inc.). After that, the cells were serially diluted and spread on a 10 cm petri dish. Colonies appeared after 2 weeks later were individually collected and used in the following tests as P2Y12 protein-expressing C6-15 cells (WO 02/36631, Mol. Pharmacol., 60, 432, 2001).
The P2Y12 protein-expressing C6-15 cells were cultured and then the cells were recovered. The cells were washed with PBS, suspended in 20 mM Tris-HCl (pH 7.4) containing 5 mmol/l EDTA and Complete™ (manufactured by Boehringer Mannheim) which is a protease inhibitor cocktail set, and homogenized by Polytron. The cells were subjected to an ultracentrifugation and a precipitate is suspended in 50 mM Tris-HCl (pH 7.4) containing 1 mM of EDTA, 100 mM NaCl, and Complete™ to perform membrane fraction.
To 100 μl of the P2Y12 protein-expressing C6-15 cell membrane fraction (100 μg/ml) produced as mentioned above, 1.5 μl of a test compound solution and 50 μl of 0.75 nM [^33P]-2-MeS-ADP (2100 Ci/mmol, manufactured by PerkinElmer Inc.) were added. The mixture was incubated in 50 mM Tris-HCl (pH 7.4) containing 100 mM NaCl and 50 mM MgCl2 at room temperature for 1 hour, and then recovered by cell harvest on a glass filter. Microscintillators were added to the glass filter and the radioactive activity was measured by a liquid scintillation counter. In addition, simultaneously, the radioactivity in the case where only a solvent is added to the above-mentioned test and in the case where 1.5 μl of 250 μM ADP is added thereto were measured respectively as the total binding amount and the nonspecific binding amount. The total binding amount and the nonspecific binding amount were set respectively as the inhibition rate of 0% and the inhibition rate of 100% to calculate the inhibition rate (%) of the test compound.

Test [2] deals with rat platelets (PRP), ADP-induced aggregation. The test is described as follows: Rat platelet aggregation inhibition test (ex vivo after oral administration). It counts as in vivo. As to conditions: male SD rat, 30 mg/kg orally, blood collected 2 hours after administration; ADP-induced aggregation of PRP. The procedure: Test Method (3) Rat Platelet Aggregation Inhibition Test and Measurement of Test Compound Concentration in Plasma
An aqueous sodium hydroxide solution and the same amount of a 1% aqueous methyl cellulose solution were added to the compound of the invention to prepare a 0.5% aqueous methyl cellulose solution or a suspension solution. This preparation solution was orally administered to a male SD rat (5 to 7 weeks old) which has been fasted over 12 hours using a sonde at a dose of 30 mg/kg. After 2 hours later since the administration of the compound, using a syringe in which 1/10 vol of a 3.8% sodium citrate solution is contained, a blood was collected. In the same manner as in Test Method (1), a PPP and a PRP having the number of the platelets as 3×10^8 /ml were prepared. 90 μl of the PRP having the number of the platelets of 3×10^8 /ml was incubated at 37° C. for 1 minute and then 10 μl of ADP (50 μM) was added thereto to cause platelet aggregation, thereby recording a variation in transmitted light for 5 minutes. An inhibition rate was calculated using an area under the platelet aggregation curve as an index.

T1 sequence (Q9H244 whole entry): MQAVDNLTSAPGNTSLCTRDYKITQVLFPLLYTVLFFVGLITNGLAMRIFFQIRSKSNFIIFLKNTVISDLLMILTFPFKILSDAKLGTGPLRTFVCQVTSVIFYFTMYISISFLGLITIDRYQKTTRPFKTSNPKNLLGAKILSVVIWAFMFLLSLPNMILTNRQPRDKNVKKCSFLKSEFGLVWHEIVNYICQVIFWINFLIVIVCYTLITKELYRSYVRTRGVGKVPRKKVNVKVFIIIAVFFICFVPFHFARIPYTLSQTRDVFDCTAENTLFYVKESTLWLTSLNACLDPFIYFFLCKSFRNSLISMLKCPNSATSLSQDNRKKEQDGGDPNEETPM

In test [1], `O=C(O)COn1c(=O)c2cc(F)c(NC3CCCCC3)cc2n(C2CCCC2)c1=O` [Example 24, {[7-(cyclohexylamino)-1-cyclopentyl-6-fluoro-2,4-dioxo-1,4-dihydroquinazolin-3(2H)-yl]oxy}acetic acid] registered an inhibition at 10 µM of 89%. The same compound returned an inhibition at 0.03 µM on Human P2Y12 of 60%.

As for `O=C(O)CNC(=O)Cn1c(=O)c2cc(F)c(NC3CCCCC3)cc2n(C2CCCC2)c1=O` [Example 42], in test [1], the inhibition at 10 µM was 75%. The inhibition at 0.03 µM on Human P2Y12 was 56%. `O=C(O)/C=C/Cn1c(=O)c2cc(F)c(NC3CCCCC3)cc2n(C2CCCC2)c1=O` [Example 65]: the “% Inhibition” value in test [2] worked out at 56%. The compound also returned an inhibition at 10 µM in test [1] of 86%. Consider `O=C(O)Cn1c(=O)c2cc(F)c(NCC3CC3)cc2n(C2CCCC2)c1=O` [Example 69], for which, in test [1], the inhibition at 10 µM was 50%.

As to `CC(C)n1c(=O)n(CCCC(=O)O)c(=O)c2cc(F)c(NC3CCCCC3)cc21` [Example 77], the inhibition at 10 µM in test [1] was 88%. Consider `CC(CCn1c(=O)c2cc(F)c(NC3CCCCC3)cc2n(C2CCCC2)c1=O)C(=O)O` (centres unmarked) [Example 114], for which the “% Inhibition” value in test [2] was found to be 90%. Also, the inhibition at 10 µM in test [1] is 91%. At Human P2Y12, the inhibition at 0.03 µM was 71%. The compound `O=C(O)CCCNn1c(=O)c2cc(F)c(NC3CCCCC3)cc2n(C2CCCC2)c1=O` [Example 155] registered an inhibition at 10 µM in test [1] of 93%. Also, the inhibition at 0.03 µM on Human P2Y12 was 72%. Take `O=C(O)COc1cccc(Cn2c(=O)c3cc(F)c(NC4CCCCC4)cc3n(C3CCCC3)c2=O)c1` [Example 157]: the inhibition at 0.03 µM on Human P2Y12 came to 67%.

For orientation: inhibition means the share of the control response that was lost under treatment. Higher therefore signals a strong effect. Usually % Inhibition stands for the relative decrease from the control value, in per cent. Read a low % Inhibition as little suppression.
